Measured values taken from PubChem BioAssay AID1259407 (Chemical Carcinogenesis Research Information System (CCRIS), 2018).
Activity calls are given as the source filed them. The rule behind the calls is not given here.

System: CCRIS mutagenicity, Ames/micronucleus/aberration tests
Assay: CCRIS mutagenicity studies

Q: Which mutagenic call (Test System: AMES SALMONELLA TYPHIMURIUM, Strain/Indicator: TA97, Metabolic Activation: HAMSTER, LIVER, S-9, AROCLOR 1254 (10%), Method: PREINCUBATION) does the source give for `COc1ccc(N)cc1N` here?
A: active; positive

Q: And the mutagenic call (Test System: AMES SALMONELLA TYPHIMURIUM, Strain/Indicator: TA97, Metabolic Activation: NONE, Method: PREINCUBATION)?
A: inactive; negative

Q: What about the mutagenic call (Test System: AMES SALMONELLA TYPHIMURIUM, Strain/Indicator: TA97, Metabolic Activation: RAT, LIVER, S-9, AROCLOR 1254 (4 OR 10%), Method: STANDARD PLATE) of the same molecule?
A: active; positive

Q: And the mutagenic call (Test System: AMES SALMONELLA TYPHIMURIUM, Strain/Indicator: TA97, Metabolic Activation: RAT, LIVER, S-9, AROCLOR 1254 (10%), Method: PREINCUBATION)?
A: active; positive

Q: What about the mutagenic call (Test System: AMES SALMONELLA TYPHIMURIUM, Strain/Indicator: TA98, Metabolic Activation: HAMSTER, LIVER, S-9, AROCLOR 1254 (10%), Method: PREINCUBATION) of the same molecule?
A: active; positive

Q: And the mutagenic call (Test System: AMES SALMONELLA TYPHIMURIUM, Strain/Indicator: TA98, Metabolic Activation: NONE, Method: PREINCUBATION)?
A: active; positive

Q: And the mutagenic call (Test System: AMES SALMONELLA TYPHIMURIUM, Strain/Indicator: TA98, Metabolic Activation: RAT, LIVER, S-9, AROCLOR 1254 (10%), Method: PREINCUBATION)?
A: active; positive

Q: What about the mutagenic call (Test System: AMES SALMONELLA TYPHIMURIUM, Strain/Indicator: TA100, Metabolic Activation: HAMSTER, LIVER, S-9, AROCLOR 1254 (10%), Method: PREINCUBATION) of the same molecule?
A: active; positive

Q: And the mutagenic call (Test System: AMES SALMONELLA TYPHIMURIUM, Strain/Indicator: TA100, Metabolic Activation: NONE, Method: PREINCUBATION)?
A: inactive; negative

Q: And the mutagenic call (Test System: AMES SALMONELLA TYPHIMURIUM, Strain/Indicator: TA100, Metabolic Activation: RAT, LIVER, S-9, AROCLOR 1254 (10%), Method: PREINCUBATION)?
A: active; positive

Q: And the mutagenic call (Test System: AMES SALMONELLA TYPHIMURIUM, Strain/Indicator: TA1535, Metabolic Activation: HAMSTER, LIVER, S-9, AROCLOR 1254 (10%), Method: PREINCUBATION)?
A: inactive; negative

Q: And the mutagenic call (Test System: AMES SALMONELLA TYPHIMURIUM, Strain/Indicator: TA1535, Metabolic Activation: NONE, Method: PREINCUBATION)?
A: inactive; negative

Q: And the mutagenic call (Test System: AMES SALMONELLA TYPHIMURIUM, Strain/Indicator: TA1535, Metabolic Activation: RAT, LIVER, S-9, AROCLOR 1254 (10%), Method: PREINCUBATION)?
A: inactive; negative

Q: What about the mutagenic call (Test System: AMES SALMONELLA TYPHIMURIUM, Strain/Indicator: TA1537, Metabolic Activation: RAT, LIVER, S-9, AROCLOR 1254 (4 OR 10%), Method: STANDARD PLATE) of the same molecule?
A: active; positive

Q: And the mutagenic call (Test System: AMES SALMONELLA TYPHIMURIUM, Strain/Indicator: TA1538, Metabolic Activation: RAT, LIVER, S-9, AROCLOR 1254 (4 OR 10%), Method: STANDARD PLATE)?
A: active; positive

Q: What about the mutagenic call (Test System: CHINESE HAMSTER V-79, Strain/Indicator: V-79/6-THIOGUANINE, Metabolic Activation: NONE, Method: SUSPENSION/PLATE) of the same molecule?
A: active; positive

Q: What about the mutagenic call (Test System: CHINESE HAMSTER V-79, Strain/Indicator: V-79/6-THIOGUANINE, Metabolic Activation: RAT, LIVER, S-9, PHENOBARBITAL AND BETA-NAPHTHOFLAVONE, Method: SUSPENSION/PLATE) of the same molecule?
A: inactive; negative

Q: What about the mutagenic call (Test System: E. COLI, Strain/Indicator: WP2 UVRA, Metabolic Activation: HAMSTER, LIVER, S-9, AROCLOR 1254, Method: STANDARD PLATE) of the same molecule?
A: inactive; negative

Q: What about the mutagenic call (Test System: E. COLI, Strain/Indicator: WP2 UVRA, Metabolic Activation: HAMSTER, LIVER, S-9, Method: STANDARD PLATE) of the same molecule?
A: inactive; negative

Q: And the mutagenic call (Test System: E. COLI, Strain/Indicator: WP2 UVRA, Metabolic Activation: MOUSE, LIVER, S-9, AROCLOR 1254, Method: STANDARD PLATE)?
A: inactive; negative

Q: What about the mutagenic call (Test System: E. COLI, Strain/Indicator: WP2 UVRA, Metabolic Activation: MOUSE, LIVER, S-9, Method: STANDARD PLATE) of the same molecule?
A: inactive; negative

Q: What about the mutagenic call (Test System: E. COLI, Strain/Indicator: WP2 UVRA, Metabolic Activation: NONE, Method: STANDARD PLATE) of the same molecule?
A: inactive; negative

Q: And the mutagenic call (Test System: E. COLI, Strain/Indicator: WP2 UVRA, Metabolic Activation: RAT, LIVER, S-9, AROCLOR 1254, Method: STANDARD PLATE)?
A: inactive; negative

Q: What about the mutagenic call (Test System: E. COLI, Strain/Indicator: WP2 UVRA, Metabolic Activation: RAT, LIVER, S-9, Method: STANDARD PLATE) of the same molecule?
A: inactive; negative

Q: What about the mutagenic call (Test System: MOUSE LYMPHOMA, Strain/Indicator: L5178Y (TK+/TK-), Metabolic Activation: NONE, Method: SUSPENSION/PLATE) of the same molecule?
A: active; positive

Q: And the mutagenic call (Test System: MOUSE LYMPHOMA, Strain/Indicator: L5178Y (TK+/TK-), Metabolic Activation: RAT, LIVER, S-9, AROCLOR 1254, Method: SUSPENSION/PLATE)?
A: active; positive
